Test results published in patent EP4678638A1, “NEW E3 UBIQUITIN LIGASE LIGAND, PROTEIN DEGRADATION AGENT AND USE THEREOF” (priority 2023, dated 2024).

What follows are compounds tested against T1, IRAK4 (Homo sapiens, UniProt Q9NWZ3) (assay: Western blot degradation of IRAK4 (hPBMC)). Settings: Table D1.
T1 construct: evaluate the effects of the compounds of the present disclosure on the expression of target proteins in cells; endogenous in cells; host or cells: hPBMC
T1 sequence (Q9NWZ3 1-460): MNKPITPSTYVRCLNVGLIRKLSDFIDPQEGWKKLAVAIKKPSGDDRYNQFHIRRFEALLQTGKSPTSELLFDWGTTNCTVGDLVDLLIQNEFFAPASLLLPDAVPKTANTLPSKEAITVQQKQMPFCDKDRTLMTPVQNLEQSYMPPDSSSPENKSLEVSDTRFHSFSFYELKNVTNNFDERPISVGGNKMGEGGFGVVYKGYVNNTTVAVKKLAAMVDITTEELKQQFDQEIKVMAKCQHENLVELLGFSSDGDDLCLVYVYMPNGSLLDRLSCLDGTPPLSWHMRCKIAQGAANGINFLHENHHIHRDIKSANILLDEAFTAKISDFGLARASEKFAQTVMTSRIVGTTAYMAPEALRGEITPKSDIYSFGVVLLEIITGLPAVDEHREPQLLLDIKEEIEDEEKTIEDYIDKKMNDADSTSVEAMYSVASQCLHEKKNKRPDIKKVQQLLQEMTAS
Format: cell-based
Experimental: Conventional Western blot assay was performed to evaluate the effects of the compounds of the present disclosure on the expression of target proteins in cells.
(1) Cell Seeding and Protein Harvesting: The selected cells were processed according to the cell seeding procedure and protein harvesting procedure in Table III-2. Table III-2 Cell Seeding and Protein Harvesting Procedures
(2) To the collected supernatant, 5X SDS sample loading buffer was added, followed by denaturation at 95°C for 5 minutes. The denatured samples were then separated by SDS-PAGE electrophoresis on a polyacrylamide gel. Proteins were transferred to a nitrocellulose membrane (0.45 µm NC membrane), blocked with blocking buffer at room temperature for 1 hour, and subjected to antibody incubation and development procedures according to the antibody manufacturer's instructions (Cell Signaling Technology).
Half-Maximal Degradation Concentration value (the drug concentration required for degrading proteins by 50%, abbreviated as DC50) reads method: comparing the grayscale values of Western blot bands from drug-treated samples with those from blank DMSO-treated controls, and identifying the drug concentration range at which the grayscale value is half that of the DMSO-treated control bands.
DC50 values can be calculated using ImageJ software to measure grayscale values of Western blot bands from drug-treated samples. The concentration-response curve is fitted to estimate the drug concentration corresponding to half the grayscale value.
Target protein remaining (%) refers to the percentage of target protein remaining in hPBMC cells after treatment with protein degrader compounds.
Calculation method for target protein remaining (%): Use ImageJ software to measure grayscale values of Western blot bands from drug (protein degrader)-treated samples. The grayscale value of drug-treated bands is divided by that of internal control protein bands, and the resulting quotient is normalized to obtain the relative percentage of remaining target protein after protein degrader treatment.
Target protein degradation rate (%) = 100% - target protein remaining (%).

| Compound | Degradation of substrate protein IRAK4 (substrate protein remaining %) |
| --- | --- |
| COc1ccc2cn(C3CCN(Cc4ccc(N5CCC(=O)NC5=O)nc4)CC3)nc2c1NC(=O)c1cccc(C(F)(F)F)c1 [GT-04887, N-(2-(1-((6-(2,4-dioxotetrahydropyrimidin-1(2H)-yl)pyridin-3-yl)methyl)piperidin-4-yl)-6-methoxy-2H-indazol-7-yl)-3-(trifluoromethyl)benzamide] | A (A is defined as 0% ≤ substrate protein remaining % ≤ 80%) |
| O=C1CCC(Nc2cccc(CN3CCN(c4ccc5c(c4)nc(NC(=O)c4cccc(C(F)(F)F)c4)n5[C@H]4CC[C@@H](CO)CC4)CC3)c2)C(=O)N1 (some centres unmarked) [GT-04985, N-(5-(4-(3-((2,6-dioxopiperidin-3-yl)amino)benzyl)piperazin-1-yl)-1-((1s,4s)-4-(hydroxymethyl)cyclohexyl) -1H-benzo[d]imidazol-2-yl)-3-(trifluoromethyl)benzamide] | A (A is defined as 0% ≤ substrate protein remaining % ≤ 80%) |
| O=C1CCN(c2ccc(CN3CCC(n4cc(NC(=O)c5cnn6ccc(N7C[C@H]8C[C@@H]7CO8)nc56)c(C(F)F)n4)CC3)cn2)C(=O)N1 [GT-05054, 5-((1R,4R)-2-oxa-5-azabicyclo[2.2.1]heptan-5-yl)-N-(3-(difluoromethyl)-1-(1-((6-(2,4-dioxotetrahydropyrimidin-1(2H)-yl)pyridin-3-yl)methyl)piperidin-4-yl)-1H-pyrazol-4-yl)pyrazolo[1,5-a]pyrimidine-3-carboxamide] | A (A is defined as 0% ≤ substrate protein remaining % ≤ 80%) |
| O=C1CCN(c2cccc(CN3CCC(n4cc(NC(=O)c5coc(-c6ccnc(NCC(F)(F)F)c6)n5)c(C(F)F)n4)CC3)c2)C(=O)N1 [GT-05190, N-(3-(difluoromethyl)-1-(1-(3-(2,4-dioxotetrahydropyrimidin-1(2H)-yl)benzyl)piperidin-4-yl)-1H-pyrazol-4-yl)-2-(2-((2,2,2-trifluoroethyl)amino)pyridin-4-yl)oxazole-4-carboxamide] | A (A is defined as 0% ≤ substrate protein remaining % ≤ 80%) |
| CC(C)(O)c1cc2nc(C3CCN(Cc4ccc(C5CCC(=O)NC5=O)cc4)CC3)oc2cc1NC(=O)c1cccc(C(F)(F)F)n1 (centres unmarked) [GT-05771, N-(2-(1-(4-(2,6-dioxopiperidin-3-yl)benzyl)piperidin-4-yl)-5-(2-hydroxypropan-2-yl)benzo[d]oxazol-6-yl)-6-(trifluoromethyl)picolinamide] | A (A is defined as 0% ≤ substrate protein remaining % ≤ 80%) |
| Cc1cc(-c2nc(C(=O)Nc3cc4oc(N5CCN(Cc6ccc(N7CCC(=O)NC7=O)cc6)CC5)nc4nc3N3CC[C@@H](O)C3)co2)ccn1 [GT-05807, (R)-N-(2-(4-(4-(2,4-dioxotetrahydropyrimidin-1(2H)-yl)benzyl)piperazin-1-yl)-5-(3-hydroxypyrrolidin-1-yl)oxazolo[4,5-b]pyridin-6-yl)-2-(2-methylpyridin-4-yl)oxazole-4-carboxamide] | A (A is defined as 0% ≤ substrate protein remaining % ≤ 80%) |
| CC(C)Nc1cc(-n2ccc3cc(C#N)cnc32)ncc1C(=O)NC1CCN(Cc2cc(N3CCC(=O)NC3=O)ncc2F)CC1 [GT-07408, 6-(5-cyano-1H-pyrrolo[2,3-b]pyridin-1-yl)-N-(1-((2-(2,4-dioxotetrahydropyrimidin-1(2H)-yl)-5-fluoropyridin-4-yl)methyl)piperidin-4-yl)-4-(isopropylamino)nicotinamide] | A (A is defined as 0% ≤ substrate protein remaining % ≤ 80%) |
| CC(C)Nc1cc(-n2ccc3cc(C#N)cnc32)ncc1C(=O)NC1CCN(Cc2ccnc(N3CCC(=O)NC3=O)c2)CC1 [GT-07409, 6-(5-cyano-1H-pyrrolo[2,3-b]pyridin-1-yl)-N-(1-((2-(2,4-dioxotetrahydropyrimidin-1(2H)-yl)pyridin-4-yl)methyl)piperidin-4-yl)-4-(isopropylamino)nicotinamide] | A (A is defined as 0% ≤ substrate protein remaining % ≤ 80%) |
| CC(C)Nc1cc(-n2ccc3cc(C#N)cnc32)ncc1C(=O)NC1CCN(Cc2cncc(N3CCC(=O)NC3=O)c2)CC1 [GT-07410, 6-(5-cyano-1H-pyrrolo[2,3-b]pyridin-1-yl)-N-(1-((5-(2,4-dioxotetrahydropyrimidin-1(2H)-yl)pyridin-3-yl)methyl)piperidin-4-yl)-4-(isopropylamino)nicotinamide] | A (A is defined as 0% ≤ substrate protein remaining % ≤ 80%) |
| CC(C)Nc1cc(-n2ccc3cc(C#N)cnc32)ncc1C(=O)NC1CCN(Cc2ccc(C3CCC(=O)NC3=O)cn2)CC1 (centres unmarked) [GT-07411, 6-(5-cyano-1H-pyrrolo[2,3-b]pyridin-1-yl)-N-(1-((5-(2,6-dioxopiperidin-3-yl)pyridin-2-yl)methyl)piperidin-4-yl)-4-(isopropylamino)nicotinamide] | A (A is defined as 0% ≤ substrate protein remaining % ≤ 80%) |
| CC(C)Nc1cc(-n2ccc3cc(C#N)cnc32)ncc1C(=O)NC1CCN(Cc2ccnc(C3CCC(=O)NC3=O)c2)CC1 (centres unmarked) [GT-07412, 6-(5-cyano-1H-pyrrolo[2,3-b]pyridin-1-yl)-N-(1-((2-(2,6-dioxopiperidin-3-yl)pyridin-4-yl)methyl)piperidin-4-yl)-4-(isopropylamino)nicotinamide] | A (A is defined as 0% ≤ substrate protein remaining % ≤ 80%) |
| CC(C)Nc1cc(-n2ccc3cc(C#N)cnc32)ncc1C(=O)NC1CCN(Cc2cncc(C3CCC(=O)NC3=O)c2)CC1 (centres unmarked) [GT-07413, 6-(5-cyano-1H-pyrrolo[2,3-b]pyridin-1-yl)-N-(1-((5-(2,6-dioxopiperidin-3-yl)pyridin-3-yl)methyl)piperidin-4-yl)-4-(isopropylamino)nicotinamide] | A (A is defined as 0% ≤ substrate protein remaining % ≤ 80%) |
| COc1cc2nn(C3CCN(Cc4cc(N5CCC(=O)NC5=O)ncc4F)CC3)cc2cc1NC(=O)c1cccc(C(F)(F)F)c1 [GT-07414, N-(2-(1-((2-(2,4-dioxotetrahydropyrimidin-1(2H)-yl)-5-fluoropyridin-4-yl)methyl)piperidin-4-yl)-6-methoxy-2H-indazol-5-yl)-3-(trifluoromethyl)benzamide] | A (A is defined as 0% ≤ substrate protein remaining % ≤ 80%) |
| COc1cc2nn(C3CCN(Cc4ccnc(N5CCC(=O)NC5=O)c4)CC3)cc2cc1NC(=O)c1cccc(C(F)(F)F)c1 [GT-07415, N-(2-(1-((2-(2,4-dioxotetrahydropyrimidin-1(2H)-yl)pyridin-4-yl)methyl)piperidin-4-yl)-6-methoxy-2H-indazol-5-yl)-3-(trifluoromethyl)benzamide] | A (A is defined as 0% ≤ substrate protein remaining % ≤ 80%) |
| COc1cc2nn(C3CCN(Cc4cncc(N5CCC(=O)NC5=O)c4)CC3)cc2cc1NC(=O)c1cccc(C(F)(F)F)c1 [GT-07416, N-(2-(1-((5-(2,4-dioxotetrahydropyrimidin-1(2H)-yl)pyridin-3-yl)methyl)piperidin-4-yl)-6-methoxy-2H-indazol-5-yl)-3-(trifluoromethyl)benzamide] | A (A is defined as 0% ≤ substrate protein remaining % ≤ 80%) |
| COc1cc2nn(C3CCN(Cc4ccnc(C5CCC(=O)NC5=O)c4)CC3)cc2cc1NC(=O)c1cccc(C(F)(F)F)c1 (centres unmarked) [GT-07418, N-(2-(1-((2-(2,6-dioxopiperidin-3-yl)pyridin-4-yl)methyl)piperidin-4-yl)-6-methoxy-2H-indazol-5-yl)-3-(trifluoromethyl)benzamide] | A (A is defined as 0% ≤ substrate protein remaining % ≤ 80%) |
| COc1cc2nn(C3CCN(Cc4ccnc(N5CCC(=O)NC5=O)c4)CC3)cc2cc1NC(=O)c1cccc(C(F)(F)F)n1 [GT-07532, N-(2-(1-((2-(2,4-dioxotetrahydropyrimidin-1(2H)-yl)pyridin-4-yl)methyl)piperidin-4-yl)-6-methoxy-2H-indazol-5-yl)-6-(trifluoromethyl)picolinamide] | A (A is defined as 0% ≤ substrate protein remaining % ≤ 80%) |
